Key:
[1] = target: T1, Recombinant human protein tyrosine phosphatase 1B (Homo sapiens, UniProt P18031); test: Protein tyrosine phosphatase 1B inhibitory activity (malachite green, phosphorylated insulin receptor peptide substrate); format: biochemical; conditions: recombinant human PTP1B, 60 min room temperature, absorbance 650 nm
T1 construct: purchased UBI
T1 sequence (P18031 1-435): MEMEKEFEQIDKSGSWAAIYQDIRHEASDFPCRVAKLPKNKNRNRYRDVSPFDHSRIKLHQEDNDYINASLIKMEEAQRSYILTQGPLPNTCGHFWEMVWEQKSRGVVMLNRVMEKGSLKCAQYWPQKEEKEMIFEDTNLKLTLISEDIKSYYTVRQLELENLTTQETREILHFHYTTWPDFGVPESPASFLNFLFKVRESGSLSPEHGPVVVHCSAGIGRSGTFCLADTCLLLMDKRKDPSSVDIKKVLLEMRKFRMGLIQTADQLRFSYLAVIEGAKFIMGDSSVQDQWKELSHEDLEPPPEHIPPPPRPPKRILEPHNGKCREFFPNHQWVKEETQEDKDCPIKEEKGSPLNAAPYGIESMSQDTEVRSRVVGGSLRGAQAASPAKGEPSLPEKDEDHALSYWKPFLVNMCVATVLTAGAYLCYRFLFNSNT
Protocol: Preparation of Assay Buffer:
A 50 mM Tris-HCl buffer (pH 7.5), 50 mM NaCl and 3 mM dithiothreitol (DTT) were prepared.
[…] 0.1, 0.3, 1, 3 and 10 μM of the test compound were prepared and diluted with the above-mentioned assay buffer to the final dimethyl sulfoxide (DMSO) concentration of not more than 1%. As the control, the assay buffer was used.
Preparation of Substrate:
Recombinant human protein tyrosine phosphatase 1B (manufactured by UBI) was diluted with the above-mentioned assay buffer (1.2 ng/25 μl).
The sample (10 μl) prepared as mentioned above and a substrate (25 μl) were successively added to a 96 well plate, and the enzyme (25 μl) prepared as mentioned above was added and mixed. The mixture was incubated at room temperature for 60 min and a malachite green (120 μl, Biomol), which is a color reagent, was added. The mixture was further incubated at room temperature for 20 min to allow for color development. An absorbance at 650 nm was measured on a plate reader based on which the protein tyrosine phosphatase 1B inhibitory activity of the test compound was evaluated.

IC50 [1] [µM]	melting point [°C]	SMILES
0.092	153 to 155	CCCC(CCC)c1ccc(OCc2ccc(-c3csc(CN(CC(=O)O)Cc4nc5ccccc5[nH]4)c3)cc2)cc1 [Example 4-6]
0.16		CCCC(CCC)c1ccc(OCc2ccc(-c3ccc(C(=O)N(CC(=O)O)Cc4ncc(C(C)(C)C)s4)s3)cc2)cc1 [Example 4-43]
0.19	153 to 154	CCCC(CCC)c1ccc(COc2ccc(-c3csc(CN4CCN(c5cccc(C(=O)O)c5)CC4)n3)cc2)cc1 [Example 1-156]
0.37	137 to 138	CCCC(CCC)c1ccc(COc2ccc(-c3csc(CN4CCN(c5ccccc5C(=O)O)CC4)n3)cc2)cc1 [Example 1-155]
0.11	90 to 93	CCCC(CCC)c1ccc(COc2ccc(-c3csc(CN4Cc5ccccc5C[C@H]4C(=O)O)n3)cc2)cc1 [Example 3-26]
0.29	147 to 152	CCCC(CCC)c1ccc2c(c1)nc(-c1csc(COc3ccc(C(=O)O)cc3)n1)n2Cc1ccc(C(C)C)cc1 [Example 1-158]
0.17	167.5 to 169.9	CCCC(CCC)c1ccc(OCc2ccc(-c3csc(CN(CC(=O)O)Cc4ccc(-n5ccnc5)cc4)c3)cc2)cc1 [Example 4-91]
0.12	137.3 to 138.7	CCCC(CCC)c1ccc(OCc2ccc(-c3csc(CN(CC(=O)O)Cc4ccc5ccccc5n4)c3)cc2)cc1 [Example 4-87]
0.16	141.2 to 144.1	C=CCn1c(CN(CC(=O)O)Cc2ccc(-c3ccc(COc4ccc(C(CCC)CCC)cc4)cc3)s2)nc2ccccc21 [Example 4-106]
0.16	203.4 to 205.3	CCCC(CCC)c1ccc(OCc2ccc(-c3csc(CN(CC(=O)O)Cc4ccc5[nH]ccc5n4)c3)cc2)cc1 [Example 4-90]
0.095	202 to 205	CN(Cc1ccc([C@H]2CC[C@H](C)CC2)cc1)c1ccc(-c2csc(CN3Cc4ccccc4CC3C(=O)O)n2)cc1 (some centres unmarked) [Example 3-71]
< 0.1	150.9 to 152.8	CCCC(CCC)c1ccc(OCc2ccc(-c3csc(CN(CC(=O)O)Cc4nc5ccccc5s4)c3)cc2)cc1 [Example 4-88]
0.49	135.2 to 136	CCCC(CCC)c1ccc(OCc2ccc(-c3csc(CN(CC(=O)O)Cc4nccn4Cc4ccccc4)c3)cc2)cc1 [Example 4-89]
0.18		CCCC(CCC)c1ccc(OCc2ccc(-c3csc(COc4cc(C(=O)O)ccc4N(C)S(C)(=O)=O)c3)cc2)cc1 [Example 4-59]
0.07	176 to 178	CCCC(CCC)c1ccc(OCc2ccc(-c3ccc(C(=O)N4CCC(c5ccc(C(=O)O)cc5)CC4)s3)cc2)cc1 [Example 4-53]
0.12	127.4 to 130	CCCC(CCC)c1ccc(OCc2ccc(-c3ccc(CN(CC(=O)O)Cc4nc5ccccc5o4)s3)cc2)cc1 [Example 4-96]
0.38	202.7 to 204.3	CCCC(CCC)c1ccc(OCc2ccc(-c3ccc(CN(CC(=O)O)Cc4ccc(SC)cc4)s3)cc2)cc1 [Example 4-78]
0.19	194.2 to 195.5	CCCC(CCC)c1ccc(OCc2ccc(-c3csc(COc4ccc(C(=O)O)cc4)c3)cc2)cc1 [Example 4-58]
0.37	117 to 123.1	Cc1ccc(OCc2ccc(C3CCCCC3)cc2)c(-c2csc(CN(C)[C@@H](Cc3ccccc3)C(=O)O)c2)c1 [Example 4-102]
0.27	137 to 139	CCCC(CCC)c1ccc(OCc2ccc(-c3ccc(C(=O)N(CC(=O)O)Cc4ccc(N(C)C)cc4)s3)cc2)cc1 [Example 4-45]
0.12	172 to 174	CCCC(CCC)c1ccc(OCc2ccc(-c3ccc(CN(CC(=O)O)CC(=O)Nc4ccc(C(C)C)cc4)s3)cc2)cc1 [Example 4-9]

IC50 [1] [µM]	melting point [°C]	SMILES
< 0.1	92.6 to 94.7	CCCC(CCC)c1ccc(OCc2ccc(-c3ccc(CN(CC(=O)O)Cc4cc(C(F)(F)F)ccc4Cl)s3)cc2)cc1 [Example 4-75]
0.31	148.5 to 149.5	CCCC(CCC)c1ccc(OCc2ccc(-c3csc(CN4CCc5ccc(C(=O)O)cc5C4)n3)cc2)cc1 [Example 1-160]
0.15		CCCC(CCC)c1ccc(OCc2ccc(-c3ccc(C(=O)N4CCN(c5ccc(C(=O)O)cc5)CC4)s3)cc2)cc1 [Example 4-52]
0.17	109 to 111	CCCC(CCC)c1ccc(OCc2ccc(-c3csc(CN(CC(=O)O)C(=O)c4ccc(C(C)C)cc4)c3)cc2)cc1 [Example 4-70]
0.24		CN(Cc1ccc(C(=O)O)cc1)c1nc(-c2ccc(C(=O)Nc3ccc(C4CCCCC4)cc3)cc2)cs1 [Example 1-53]
0.42	161 to 164.3	Cl.O=C(O)CN(Cc1ccccc1)Cc1ccc(-c2cn(Cc3ccc(C4CCCCC4)cc3)c3ccccc23)s1 [Example 4-63]
0.16	180 to 182	CN(C[C@H]1CC[C@H](c2ccc(Cl)cc2)CC1)c1ccc(-c2csc(CN(CC(=O)O)Cc3ccccc3)n2)cc1 [Example 3-34]
0.25	156.5 to 165.5	CCCC(CCC)c1ccc(OCc2ccc(-c3csc(COc4cc(C(=O)O)ccc4N)c3)cc2)cc1 [Example 4-61]
0.11	202.3 to 204.4	CCCC(CCC)c1ccc(OCc2ccc(-c3ccc(CN(CC(=O)O)Cc4cc5ccccc5s4)s3)cc2)cc1 [Example 4-97]
0.16	229 to 231	CN(Cc1ccc([C@H]2CC[C@H](C)CC2)cc1)c1ccc(-c2csc(CN3CCC(C(=O)O)(c4ccccc4)CC3)n2)cc1 [Example 3-69]
0.087		CCCC(CCC)c1ccc(OCc2ccc(-c3ccc(CN(CC(=O)O)Cc4nc(C(C)(C)C)cs4)s3)cc2)cc1 [Example 4-35]
0.2		CCCC(CCC)c1ccc(OCc2ccc(-c3csc(COc4cc(C(=O)O)ccc4NC(=O)CN(C)C)c3)cc2)cc1 [Example 4-56]
0.29		CCCC(CCC)c1ccc(OCc2ccc(-c3csc(CN(CC(=O)O)C(=O)N(C)c4ccccc4)c3)cc2)cc1 [Example 4-72]
0.14		CCCC(CCC)c1ccc(OCc2ccc(-c3csc(CN(C)S(=O)(=O)c4ccc(C(=O)O)cc4)n3)cc2)cc1 [Example 1-50]
0.073		CN(Cc1ccc(C2CCC(C)(C)CC2)cc1)c1ccc(-c2csc(CN(CC(=O)O)Cc3ccccc3)n2)cc1 [Example 3-35]
< 0.1		CCCC(CCC)c1ccc(OCc2ccc(-c3ccc(CN(CC(=O)O)C(c4ccccc4)c4ccccc4)s3)cc2)cc1 [Example 4-81]
0.15		CCCC(CCC)c1ccc(OCc2ccc(-c3ccc(CN(CC(=O)O)Cc4nc5ccccc5n4C)s3)cc2)cc1 [Example 4-1]
0.17		CCCC(CCC)c1ccc(OCc2ccc(-c3csc(CN(CC(=O)O)Cc4nc5ccccc5n4C)c3)cc2)cc1 [Example 4-30]
	147	CC(C)CN(Cc1ccc(-c2csc(CN(CC(=O)O)C(=O)c3ccccc3)n2)cc1)c1ccc(C(C)(C)C)cc1 [Example 1-28]
	189.2 to 190.3	CCCC(CCC)c1ccc(Cn2c(-c3csc(CN4CCc5ccc(C(=O)O)cc5C4)n3)nc3ccccc32)cc1 [Example 1-169]

Source: patent publication US20060122181A1, “Heteroaromatic pentacyclic compound and medicinal use thereof” (Japan Tobacco Inc., priority 2003, published 2006)
